Laboratory results published in patent US11401253B2, “16-methyl-oxacyclohexadecan-2-one and 16-methyl-azacyclohexadecan-2-one derivatives as antimicrobial agents” (THE UNIVERSITY OF MONTANA, priority 2017, dated 2022).
Values after ≈ are worked out from the molar mass of the structure shown. Values joined by “and” are separate entries in the source; they are usually repeats but may differ in a detail not shown here. Identical values can stand only once.

Tests used:
C. albicans = experiment: Antibiotic testing (MIC), C. albicans; type: cell-based; conditions: Candida albicans; growth inhibition ≥90%; read-out: minimum inhibitory concentration, C. albicans
[1] = tested on: non-replicating persistence Mycobacterium tuberculosis (NRP-TB); experiment: Low oxygen recovery assay (LORA), non-replicating persistence Mtb; type: cell-based; conditions: Mycobacterium tuberculosis; non-replicating persistence, hypoxic conditions; read-out: MIC, LORA
B. anthracis = experiment: microbe, parasite or virus in culture; type: cell-based; conditions: Bacillus anthracis, read-out: minimum inhibitory concentration, B. anthracis
[2] = tested on: Staphylococcus aureus (13709); experiment: Antibiotic testing (MIC), S. aureus 13709; type: cell-based; conditions: growth inhibition ≥90% relative to drug-free controls, read-out: minimum inhibitory concentration, Staphylococcus aureus (13709)
Bacillus subtilis = experiment: Antibiotic testing (MIC), Bacillus subtilis; type: cell-based; conditions: growth inhibition ≥90%, read-out: minimum inhibitory concentration, Bacillus subtilis
Vero cell = experiment: Cytotoxicity (MTS), Vero cells; type: cell-based, monkey; conditions: Primates, 72 hours exposure
HepG2 = experiment: Cytotoxicity (MTS), HepG2 cells; type: cell-based; conditions: Homo sapiens, 72 hours exposure
J774 = experiment: Cytotoxicity (MTS), J774 cells; type: cell-based, murine; conditions: Mus musculus, 72 hours exposure
[3] = tested on: Mycobacterium tuberculosis; experiment: microbe, parasite or virus in culture; conditions: read-out: MIC, MABA
Streptococcus pyogenes = experiment: Antibiotic testing (MIC), Streptococcus pyogenes; type: cell-based; conditions: growth inhibition ≥90%, read-out: minimum inhibitory concentration, Streptococcus pyogenes
Candida glabrata = experiment: Antibiotic testing (MIC), Candida glabrata; type: cell-based; conditions: Nakaseomyces glabratus; growth inhibition ≥90%; read-out: minimum inhibitory concentration, Candida glabrata
K. pneumoniae (10031) = experiment: Antibiotic testing (MIC), gram negative K. pneumoniae; type: cell-based; conditions: for MIC: Klebsiella pneumoniae, read-out: MIC, K. pneumoniae (10031)
Procedure: (§1) None of this collection of compounds were active against Gram-negative bacteria
(§2) Additionally, BPL 76 and derivatives were tested against a panel of gram negative bacteria including K. pneumonia, P. aeruginosa and E. coli (Table 12).

P. aeruginosa = experiment: Antibiotic testing (MIC), gram negative P. aeruginosa; type: cell-based; conditions: Pseudomonas aeruginosa; read-out: MIC, P. aeruginosa
Procedure: as §1, §2

E. coli (25922) = experiment: Antibiotic testing (MIC), gram negative E. coli; type: cell-based; conditions: for MIC: Escherichia coli, read-out: MIC, E. coli (25922)
Procedure: as §1, §2

S. aureus CAIRD116 = experiment: Antibiotic testing, methicillin-resistant S. aureus CAIRD116; type: cell-based; conditions: methicillin-resistant strain
Text: (§3) Both the methyl ester and the diacetate derivatives of BPL 76 slightly less but still very strong activity against the same four MRSA strains (Table 11). The activities of compounds BPL 76 and BPL 81 were compared to several known antibiotics against three methicillin-resistant strains of S. aureus [FIG. 6, comparative data provided by Hartford Hospital, Center for Anti-Infective Research and Development (CAIRD)].

S. aureus CAIRD148 = experiment: Antibiotic testing, methicillin-resistant S. aureus CAIRD148; type: cell-based; conditions: methicillin-resistant strain
Text: as §3

S. aureus CAIRD142 = experiment: Antibiotic testing, methicillin-resistant S. aureus CAIRD142; type: cell-based; conditions: methicillin-resistant strain
Text: as §3

S. aureus (NE277) = experiment: Antibiotic testing, methicillin-resistant S. aureus NE277; type: cell-based
Text: as §3

MMP-3 = target: T1, MMP-3 (Homo sapiens, UniProt P08254); experiment: MMP-3 enzyme inhibition assay; type: biochemical
T1 construct: purchased BioMol
T1 sequence (P08254 100-477): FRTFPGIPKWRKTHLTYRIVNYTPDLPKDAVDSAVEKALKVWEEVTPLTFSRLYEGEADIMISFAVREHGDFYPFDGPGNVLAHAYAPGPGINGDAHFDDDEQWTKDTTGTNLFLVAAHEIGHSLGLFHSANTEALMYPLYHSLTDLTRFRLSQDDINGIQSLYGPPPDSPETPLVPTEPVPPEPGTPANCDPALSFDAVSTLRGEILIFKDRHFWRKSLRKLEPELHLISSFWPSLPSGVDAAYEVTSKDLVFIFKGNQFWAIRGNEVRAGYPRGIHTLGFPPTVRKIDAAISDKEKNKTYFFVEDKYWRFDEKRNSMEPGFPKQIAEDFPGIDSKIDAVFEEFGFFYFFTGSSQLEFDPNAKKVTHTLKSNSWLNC
Procedure: The two fungi were also co-cultured under controlled conditions. P. fuscum was grown in pure culture in potato dextrose broth (10×400 mL). After 24 h, an agar cube (8 mm^3) impregnated with P. camembertii/clavigerum mycelium was added to each flask and the resulting co-culture was shaken for 6 more days (200 rpm, room temperature). At time of harvest, methanol (50 mL/flask) was added, the mycelia were removed by gravity filtration and the broth was extracted with chloroform (3×2 L). The chloroform was removed in vacuo to yield 663 mg of crude extract. The crude extract was verified to be active in the MMP-3, caspase-1 and caspase-3 enzyme inhibition assays. Enzyme inhibitory activity was determined using specific BioMol enzyme inhibition assay kits for drug discovery as described in Stierle, A; Stierle, D. The Berkeleylactones, Antibiotic Macrolides from Fungal Coculture. J. Nat. Prod. 80, 4, 1150-1160.

| Compound | MIC (C. albicans) [µg/mL] | MIC [1] [µg/mL] | MIC (B. anthracis) [µg/mL] | MIC [2] [µg/mL] | MIC (Bacillus subtilis) [µg/mL] | IC50 (Vero cell) [µg/mL] | IC50 (HepG2) [µg/mL] | IC50 (J774) [µg/mL] | MIC [3] [µg/mL] | MIC (Streptococcus pyogenes) [µg/mL] | MIC (Candida glabrata) [µg/mL] | MIC (K. pneumoniae (10031)) | MIC (P. aeruginosa) [µM] | MIC (E. coli (25922)) | further results |
| --- | --- | --- | --- | --- | --- | --- | --- | --- | --- | --- | --- | --- | --- | --- | --- |
| C[C@@H]1CCCCCCCCCC[C@H](O)/C=C/C(=O)O1 [BPL 94, (5S,16R,E)-5-hydroxy-16-methyloxacyclohexadec-3-en-2-one] | > 67 | 20 (≈ 74.5 µM) | 34 (≈ 127 µM) | 34 (≈ 127 µM) | 34 (≈ 127 µM) | 43.8 (≈ 163 µM) | 85.2 (≈ 317 µM) | 40.7 (≈ 152 µM) | 39 (≈ 145 µM) | 67 (≈ 250 µM) | > 67 |  |  |  |  |
| C[C@@H]1CCCCCCCCC[C@H](O)[C@H](O)/C=C/C(=O)O1 [BPL 95, (5R,6S,16R,E)-5,6-dihydroxy-16-methyloxacyclohexadec-3-en-2-one] | > 96 | 24 (≈ 84.4 µM) | > 96 | 48 (≈ 169 µM) | 48 (≈ 169 µM) | 75.6 (≈ 266 µM) | > 100 | 74.1 (≈ 261 µM) | > 100 | > 96 | > 96 |  |  |  |  |
| CC(=O)O[C@H]1CCCCCCCC[C@H](OC(C)=O)[C@H](OC(C)=O)/C=C/C(=O)O[C@@H]1C [BPL 79 Ac, (2R,3S,12S,13R,E)-2-methyl-16-oxooxacyclohexadec-14-ene-3,12,13-triyl triacetate] |  |  |  |  |  |  |  |  |  |  |  | > 500 µM | > 500 | > 500 µM |  |
| C[C@@H]1CCCCCCCCC[C@H](O)[C@H](OC(=O)CCC(=O)O)/C=C/C(=O)O1 [BPL 96, 4-(((5R,6S,16R,E)-6-hydroxy-16-methyl-2-oxooxacyclohexadec-3-en-5-yl)oxy)-4-oxobutanoic acid] | > 96 |  | > 96 | 48 (≈ 125 µM) | 48 (≈ 125 µM) |  |  |  |  | > 96 | > 96 |  |  |  |  |
| C[C@@H]1CCCCCCCCC[C@H](OC(=O)CCC(=O)O)C(=O)/C=C/C(=O)O1 [BPL 81, 4-(((6S,16R,E)-16-methyl-2,5-dioxooxacyclohexadec-3-en-6-yl)oxy)-4-oxobutanoic acid] | 96 (≈ 251 µM) | > 100 | 6 (≈ 15.7 µM) | 3 (≈ 7.84 µM) | 12 (≈ 31.4 µM) | 55.7 (≈ 146 µM) | > 100 | 37.2 (≈ 97.3 µM) | 47 (≈ 123 µM) | 48 (≈ 126 µM) | 48 (≈ 126 µM) | > 250 µM | > 250 | > 250 µM | MIC (S. aureus CAIRD116; Staphylococcus aureus, CAIRD116): 6 µg/mL (≈ 15.7 µM); antibiotic testing data (MIC), S. aureus CAIRD116 (S. aureus CAIRD116): 16 µM; MIC (S. aureus CAIRD148; Staphylococcus aureus, CAIRD148): 6 µg/mL (≈ 15.7 µM); antibiotic testing data (MIC), S. aureus CAIRD148 (S. aureus CAIRD148): 16 µM; MIC (S. aureus CAIRD142; Staphylococcus aureus, CAIRD142): 6 µg/mL (≈ 15.7 µM); antibiotic testing data (MIC), S. aureus CAIRD142 (S. aureus CAIRD142): 16 µM; MIC (S. aureus (NE277); Staphylococcus aureus, read-out: antibiotic testing data (MIC), S. aureus (NE277)): 6 µg/mL (≈ 15.7 µM); antibiotic testing data (MIC), S. aureus (NE277) (S. aureus (NE277); methicillin-resistant strain): 16 µM |
| C[C@H]1OC(=O)/C=C/[C@@H](O)[C@@H](O)CCCCCCCC[C@@H]1O [BPL 79, (5R,6S,15 S,16R,E)-5,6,15-trihydroxy-16-methyloxacyclohexadec-3-en-2-one] | > 300 |  | 75 (≈ 250 µM) | 19 (≈ 63.3 µM) | > 300 |  |  |  |  | 150 (≈ 499 µM) | > 300 | > 1000 µM | > 1000 | > 1000 µM |  |
| C[C@@H]1CC(O)CCCCCCC[C@H](OC(=O)CCC(=O)O)C(=O)/C=C/C(=O)O1 (stereo partly drawn) [BPL 78, 4-(((6S,16R,E)-14-hydroxy-16-methyl-2,5-dioxooxacyclohexadec-3-en-6-yl)oxy)-4-oxobutanoic acid] |  |  |  |  |  |  |  |  |  |  |  | > 1000 µM | > 1000 | > 1000 µM | MMP-3 inhibition (MMP-3): weaker inhibitors |
| C[C@H]1OC(=O)/C=C/C(=O)[C@@H](OC(=O)CCC(=O)O)CCCCCCCC[C@@H]1O [BPL 77, 4-(((6S,15S,16R,E)-15-hydroxy-16-methyl-2,5-dioxooxacyclohexadec-3-en-6-yl)oxy)-4-oxobutanoic acid] |  |  |  |  |  |  |  |  |  |  |  | 1000 µM and 398 µg/mL | > 1000 | 500 µM and 199 µg/mL | activity against K. pneumonia (in words) (K. pneumoniae (10031)): weakly active; activity against E. coli (in words) (E. coli (25922)): weakly active |
